Experimental data from patent US20110212455A1, “METHOD OF SCREENING MATERIAL FOR IMPROVING SKIN FUNCTIONS” (AMOREPACIFIC CORPORATION, priority 2008, published 2011).

Columns and labels:
filaggrin gene = filaggrin gene expression in human keratinocytes treated with ginsenoside-Re (Q-RT-PCR); assay type: cell-based; details: ginsenoside-Re 10 uM, 24 hours, vs untreated control, FIG. 5 (B)
Method: (§1) Various human keratinocytes were treated with a variety of materials, and change in expression of MAP17 and filaggrin genes were monitored. It was investigated whether ginsenoside-Re, a kind of ginsenoid derived from the fruit of ginseng, regulates the expression of MAP17 and filaggrin genes. Human keratinocytes were purchased from Lonza, Inc. and cultured in KBM-2 medium (Clonetics CC-3103) in a CO2 incubator under a condition of 37° C. and 5% CO2.
(§2) The cultured human keratinocytes without any treatment were used as a control group. For a test group, the human keratinocytes were further cultured for 24 hours after adding ginsenoside-Re (10 uM). Ginsenoside-Re was purchased from Wako (Kanagawa, Japan) and prepared into a solution according to the manufacturer's instructions. […]
(§3) The isolated RNA was purified once more using Qiagen RNeasy kit (Qiagen, Valencia, Calif.) and RNA quality and concentration were verified using Agilent 2100 BioAnalyzer (Agilent Technologies, Santa Clara, Calif., USA). cDNA was synthesized from the isolated RNA using Superscript RT II kit (Invitrogen, Carlsbad, Calif.), and change in gene expression was quantitatively analyzed by means of Q-RT-PCR. Change in the expression pattern of MAP17 (Hs00173779_m1) and filaggrin (Hs00856927_g1) was evaluated using TaqMan® gene expression assay kit (Applied Biosystems, Foster City, Calif.) and is shown in FIG. 5.

MAP17 gene = MAP17 gene expression in human keratinocytes treated with ginsenoside-Re (Q-RT-PCR); assay type: cell-based; details: ginsenoside-Re 10 uM, 24 hours, vs untreated control, FIG. 5 (A)
Method: as §1, §2, §3

`CC(C)=CCC[C@](C)(O[C@@H]1O[C@H](CO)[C@@H](O)[C@H](O)[C@H]1O)[C@H]1CC[C@]2(C)[C@@H]1[C@H](O)C[C@@H]1[C@@]3(C)CC[C@H](O)C(C)(C)[C@@H]3[C@@H](O[C@@H]3O[C@H](CO)[C@@H](O)[C@H](O)[C@H]3O[C@@H]3O[C@@H](C)[C@H](O)[C@@H](O)[C@H]3O)C[C@]12C` [ginsenoside-Re] was tested, and the “expression of the filaggrin gene in human keratinocytes” value (filaggrin gene) was “increases” and the “expression of the MAP17 gene in human keratinocytes” value (MAP17 gene) was “markedly decreases”.
